Reference: article PMC7101335, “Aryl-alkyl-lysines: Novel agents for treatment of C. difficile infection” (Scientific Reports, 2020)
In brackets after ≈: the same amount, converted by molar mass. Where two headings read alike, the source gives them in different places.

Columns and labels:
Type in all cases: cell-based
[1] = test system: human ileocecal colorectal adenocarcinoma cell line (HRT-18); experiment: Cytotoxicity, MTS assay, HRT-18 cells; details: 32 µg mL^−1, 2 hours
Procedure: Briefly, ~2 × 10^4 cells suspended in 100 µL of RPMI-1640 supplemented with 10% horse serum were seeded in a 96-well plate and incubated at 37 °C with 5% CO2. The cells were cultured for 24 hours until reaching ~90% confluency. The cells were further incubated with the aforementioned concentrations of the compounds for 2 hours. Afterwards, culture media were discarded and the cells in each well were washed with PBS and 100 µL of cell culture media were added prior to addition of the assay reagent MTS 3-(4,5-dimethylthiazol-2-yl)-5-(3-carboxymethoxyphenyl)-2-(4-sulfophenyl)-2H-tetrazolium) (Promega). The plates were incubated for 4 hours at 37 °C in a humidified 5% CO2 atmosphere. The absorbance was recorded at 490 nm and the corrected absorbance readings (actual absorbance readings for each treatment subtracted from background absorbance) were taken using a kinetic ELISA microplate reader (SpectraMax i3x, Molecular Devices, Sunnyvale, CA, USA). The quantity of viable cells after treatment with each compound was expressed as a percentage of the control, DMSO. Asterisk (*) denotes a significant difference from the DMSO-treated cells using 2-way analysis of variance (ANOVA) followed by Dunnett’s pairwise comparison.

[2] = test system: vancomycin-resistant and vancomycin-susceptible strains of Enterococcus; experiment: Broth microdilution MIC against Enterococcus strains (E. faecalis and E. faecium, summary in text); details: all E. faecalis and E. faecium strains tested, vancomycin-resistant and -sensitive
E. faecium = experiment: Broth microdilution MIC against E. faecium strains; details: Enterococcus faecium, read-out: Minimum inhibitory concentration
E. faecalis = experiment: Broth microdilution MIC against E. faecalis strains; details: Enterococcus faecalis, read-out: Minimum inhibitory concentration
Clostridium difficile = experiment: Broth microdilution MIC against Clostridium difficile strains; details: Clostridioides difficile
Procedure: The broth microdilution assay was utilized following the Clinical and Laboratory Standards Institute (CLSI) guidelines with slight modifications. Briefly, C. difficile strains were grown on anaerobic blood agar plates (Becton Dickinson, BD) and suspended in brain heart infusion supplemented broth (Brain heart infusion medium, BD, supplemented with yeast extract, L-cysteine, Vitamin K1 and Hemin, Sigma) to achieve a bacterial concentration of ~10^5 CFU/ml. The bacterial suspension was seeded in 96-well plates containing drugs/compounds, in duplicate, at the required concentration. Plates were then incubated at 37 °C anaerobically for 48 hours. MICs reported are the lowest concentration of each agent that inhibited the visual growth of bacteria.

[3] = E. faecium E417 (vancomycin-resistant)
[4] = E. faecalis SF28073 (vancomycin-resistant)
[5] = C. difficile Isolate 1 (NR-13427), read-out: Minimum inhibitory concentration
[6] = C. difficile Isolate 2 (NR-13428), read-out: Minimum inhibitory concentration
[7] = C. difficile Isolate 4 (NR-13430), read-out: Minimum inhibitory concentration
[8] = C. difficile Isolate 5 (NR-13431), read-out: Minimum inhibitory concentration
[9] = C. difficile Isolate 6 (NR-13432), read-out: Minimum inhibitory concentration
[10] = C. difficile Isolate 9 (NR-13435), read-out: Minimum inhibitory concentration
[11] = C. difficile Isolate 10 (NR-13436), read-out: Minimum inhibitory concentration
[12] = C. difficile P2 (NR-32883), read-out: Minimum inhibitory concentration
[13] = C. difficile P4 (NR-32889), read-out: Minimum inhibitory concentration
[14] = C. difficile P8 (NR-32888), read-out: Minimum inhibitory concentration
[15] = C. difficile P13 (NR-32891), read-out: Minimum inhibitory concentration
[16] = C. difficile P15 (NR-32892), read-out: Minimum inhibitory concentration
[17] = C. difficile P20 (NR-32896), read-out: Minimum inhibitory concentration
[18] = C. difficile P21 (NR-32897), read-out: Minimum inhibitory concentration
[19] = C. difficile P29 (NR-32903), read-out: Minimum inhibitory concentration
[20] = across all tested strains of C. difficile
[21] = C. difficile strains P8, P13 and Isolate 10

SMILES	toxicity to HRT-18 cells [1]	MIC [2] [µg/mL]	MIC (E. faecium; [3]) [µg/mL]	MIC (E. faecium; E. faecium E1071) [µg/mL]	MIC (E. faecium; E. faecium UAA714) [µg/mL]	MIC (Clostridium difficile; [5]) [µg/mL]	MIC (Clostridium difficile; [6]) [µg/mL]	MIC (Clostridium difficile; [7]) [µg/mL]	MIC (Clostridium difficile; [8]) [µg/mL]	MIC (Clostridium difficile; [9]) [µg/mL]	MIC (Clostridium difficile; [10]) [µg/mL]	MIC (Clostridium difficile; [11]) [µg/mL]	MIC (Clostridium difficile; [12]) [µg/mL]	MIC (Clostridium difficile; [13]) [µg/mL]	MIC (Clostridium difficile; [14]) [µg/mL]	MIC (Clostridium difficile; [15]) [µg/mL]	MIC (Clostridium difficile; [16]) [µg/mL]	MIC (Clostridium difficile; [17]) [µg/mL]	MIC (Clostridium difficile; [18]) [µg/mL]	MIC (Clostridium difficile; [19]) [µg/mL]	further results
CCCCCCN(Cc1cccc2ccccc12)C(=O)[C@@H](N)CCCCN [NCK-6]	survived	64 to 128 (≈ 173 to 346 µM)	64 (≈ 173 µM)	128 (≈ 346 µM)	128 (≈ 346 µM)	64 (≈ 173 µM)	64 (≈ 173 µM)	64 (≈ 173 µM)	32 (≈ 86.6 µM)	64 (≈ 173 µM)	32 (≈ 86.6 µM)	64 (≈ 173 µM)	64 (≈ 173 µM)	64 (≈ 173 µM)	64 (≈ 173 µM)	64 (≈ 173 µM)	64 (≈ 173 µM)	64 (≈ 173 µM)	32 (≈ 86.6 µM)	32 (≈ 86.6 µM)	MIC (E. faecalis; E. faecalis B3196): 128 µg/mL (≈ 346 µM); MIC (E. faecalis; E. faecalis B3286): 128 µg/mL (≈ 346 µM); MIC (E. faecalis; E. faecalis B3336): 128 µg/mL (≈ 346 µM); MIC (E. faecalis; E. faecalis SF24397): 128 µg/mL (≈ 346 µM); MIC (E. faecalis; [4]): 128 µg/mL (≈ 346 µM); MIC (Clostridium difficile; [20]): 32 µg/mL (≈ 86.6 µM)
CN[C@H](CC(C)C)C(=O)N[C@H]1C(=O)N[C@@H](CC(N)=O)C(=O)N[C@H]2C(=O)N[C@H]3C(=O)N[C@H](C(=O)N[C@H](C(=O)O)c4cc(O)cc(O)c4-c4cc3ccc4O)[C@H](O)c3ccc(c(Cl)c3)Oc3cc2cc(c3O[C@@H]2O[C@H](CO)[C@@H](O)[C@H](O)[C@H]2O[C@H]2C[C@](C)(N)[C@H](O)[C@H](C)O2)Oc2ccc(cc2Cl)[C@H]1O [Vancomycin, reference compound]																					MIC (E. faecium): > 128 µg/mL; MIC (E. faecalis): 1 µg/mL (≈ 0.69 µM); MIC (Clostridium difficile; [21]): 0.5 µg/mL (≈ 0.345 µM); MIC (Clostridium difficile; read-out: Minimum inhibitory concentration, C. difficile Isolate 1 (NR-13427)): 1 µg/mL (≈ 0.69 µM); MIC (Clostridium difficile; read-out: Minimum inhibitory concentration, C. difficile Isolate 2 (NR-13428)): 1 µg/mL (≈ 0.69 µM); MIC (Clostridium difficile; read-out: Minimum inhibitory concentration, C. difficile Isolate 4 (NR-13430)): 0.5 µg/mL (≈ 0.345 µM); MIC (Clostridium difficile; read-out: Minimum inhibitory concentration, C. difficile Isolate 5 (NR-13431)): 0.5 µg/mL (≈ 0.345 µM); MIC (Clostridium difficile; read-out: Minimum inhibitory concentration, C. difficile Isolate 6 (NR-13432)): 0.5 µg/mL (≈ 0.345 µM); MIC (Clostridium difficile; read-out: Minimum inhibitory concentration, C. difficile Isolate 9 (NR-13435)): 0.5 µg/mL (≈ 0.345 µM); MIC (Clostridium difficile; read-out: Minimum inhibitory concentration, C. difficile Isolate 10 (NR-13436)): 0.5 µg/mL (≈ 0.345 µM); MIC (Clostridium difficile; read-out: Minimum inhibitory concentration, C. difficile P2 (NR-32883)): 0.5 µg/mL (≈ 0.345 µM); MIC (Clostridium difficile; read-out: Minimum inhibitory concentration, C. difficile P4 (NR-32889)): 2 µg/mL (≈ 1.38 µM); MIC (Clostridium difficile; read-out: Minimum inhibitory concentration, C. difficile P8 (NR-32888)): 0.5 µg/mL (≈ 0.345 µM); MIC (Clostridium difficile; read-out: Minimum inhibitory concentration, C. difficile P13 (NR-32891)): 0.5 µg/mL (≈ 0.345 µM); MIC (Clostridium difficile; read-out: Minimum inhibitory concentration, C. difficile P15 (NR-32892)): 0.5 µg/mL (≈ 0.345 µM); MIC (Clostridium difficile; read-out: Minimum inhibitory concentration, C. difficile P20 (NR-32896)): 1 µg/mL (≈ 0.69 µM); MIC (Clostridium difficile; read-out: Minimum inhibitory concentration, C. difficile P21 (NR-32897)): 0.5 µg/mL (≈ 0.345 µM); MIC (Clostridium difficile; read-out: Minimum inhibitory concentration, C. difficile P29 (NR-32903)): 0.5 µg/mL (≈ 0.345 µM); MIC (Clostridium difficile; the rest of the C. difficile strains): 0.5 to 1 µg/mL (≈ 0.345 to 0.69 µM)
Cc1ncc([N+](=O)[O-])n1CCO [Metronidazole, reference compound]						0.25 (≈ 1.46 µM)	0.0625 (≈ 0.365 µM)	0.5 (≈ 2.92 µM)	0.25 (≈ 1.46 µM)	0.125 (≈ 0.73 µM)	0.0625 (≈ 0.365 µM)	0.125 (≈ 0.73 µM)	0.0625 (≈ 0.365 µM)	0.125 (≈ 0.73 µM)	0.125 (≈ 0.73 µM)	0.25 (≈ 1.46 µM)	0.0625 (≈ 0.365 µM)	0.25 (≈ 1.46 µM)	0.125 (≈ 0.73 µM)	0.0625 (≈ 0.365 µM)	MIC (Clostridium difficile; [21]): < 0.25 µg/mL
CCCCCCCCCCCCN(Cc1cccc2ccccc12)C(=O)[C@@H](N)CCCCN [NCK-12]	survived	4 to 8 (≈ 8.82 to 17.6 µM)	4 (≈ 8.82 µM)	8 (≈ 17.6 µM)	8 (≈ 17.6 µM)	4 (≈ 8.82 µM)	2 (≈ 4.41 µM)	2 (≈ 4.41 µM)	1 (≈ 2.2 µM)	2 (≈ 4.41 µM)	2 (≈ 4.41 µM)	2 (≈ 4.41 µM)	1 (≈ 2.2 µM)	4 (≈ 8.82 µM)	4 (≈ 8.82 µM)	2 (≈ 4.41 µM)	2 (≈ 4.41 µM)	2 (≈ 4.41 µM)	2 (≈ 4.41 µM)	2 (≈ 4.41 µM)	MIC (E. faecalis; E. faecalis B3196): 4 µg/mL (≈ 8.82 µM); MIC (E. faecalis; E. faecalis B3286): 8 µg/mL (≈ 17.6 µM); MIC (E. faecalis; E. faecalis B3336): 8 µg/mL (≈ 17.6 µM); MIC (E. faecalis; E. faecalis SF24397): 8 µg/mL (≈ 17.6 µM); MIC (E. faecalis; [4]): 4 µg/mL (≈ 8.82 µM); MIC (Clostridium difficile; [20]): 1 to 4 µg/mL (≈ 2.2 to 8.82 µM)
